# Source: PubChem BioAssay (NCI)
#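 Values below derive from 48-hour exposures of cells grown in 96-well plates, with endpoints linearly interpolated between the two concentrations bracketing the appropriate inhibition level. TGI marks complete inhibition of growth.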
# What was measured:
# Assay in all cases: DTP human tumour cell line panel, 48 h
# [1] = tested on: SF-539 CNS
# [2] = tested on: HOP-92 NSCLC
# [3] = tested on: HCC-2998 colon
# [4] = tested on: XF 498 CNS
# [5] = tested on: COLO 205 colon
# [6] = tested on: ACHN renal
# [7] = tested on: UACC-62 melanoma
# [8] = tested on: A498 renal
# [9] = tested on: A549 NSCLC
# [10] = tested on: 786-0 renal
# [11] = tested on: UACC-257 melanoma
# [12] = tested on: SNB-19 CNS
# [13] = tested on: HOP-18 NSCLC
# [14] = tested on: IGROV1 ovarian
# [15] = tested on: RPMI-8226 leukemia
# [16] = tested on: HL-60(TB) leukemia
# [17] = tested on: OVCAR-8 ovarian
# [18] = tested on: SK-MEL-28 melanoma
# [19] = tested on: SNB-75 CNS
# [20] = tested on: NCI-H522 lung
# [21] = tested on: RXF-631 renal
# [22] = tested on: LXFL 529 NSCLC
# [23] = tested on: KM12 colon
# [24] = tested on: CCRF-CEM leukemia
# [25] = tested on: NCI-H460 lung
# [26] = tested on: SK-MEL-2 melanoma
# [27] = tested on: TK-10 renal
# [28] = tested on: RXF 393 renal
# [29] = tested on: U251 CNS
# [30] = tested on: DMS 114 small cell lung
# [31] = tested on: SNB-78 CNS
# [32] = tested on: K-562 leukemia
# [33] = tested on: SR leukemia
# [34] = tested on: HT29 colon
# [35] = tested on: SF-295 CNS
# [36] = tested on: NCI-H23 lung
# [37] = tested on: HCT-15 colon
# [38] = tested on: SF-268 CNS
# [39] = tested on: LOX IMVI melanoma
# [40] = tested on: DMS 273 small cell lung
# [41] = tested on: SK-MEL-5 melanoma
# [42] = tested on: M19-MEL melanoma
# [43] = tested on: MOLT-4 leukemia
# [44] = tested on: EKVX NSCLC
# [45] = tested on: SN12C renal
# [46] = tested on: HCT-116 colon
# [47] = tested on: DLD-1 colon
# [48] = tested on: UO-31 renal
# [49] = tested on: M14 melanoma
# [50] = tested on: SK-OV-3 ovarian
# [51] = tested on: SW-620 colon
# [52] = tested on: OVCAR-5 ovarian
# [53] = tested on: OVCAR-3 ovarian
# [54] = tested on: KM20L2 colon
# [55] = tested on: MALME-3M melanoma
compound,measurement,setting,value
COc1ccc(NCC#N)cc1,TGI,[1],> 100 µM
same,TGI,[2],> 100 µM
same,TGI,[3],> 100 µM
same,TGI,[4],> 100 µM
same,TGI,[5],> 100 µM
same,TGI,[6],> 100 µM
same,TGI,[7],> 100 µM
same,TGI,[8],> 100 µM
same,TGI,[9],> 100 µM
same,TGI,[10],75.8 µM
same,TGI,[11],> 100 µM
same,TGI,[12],> 100 µM
same,TGI,[13],> 100 µM
same,TGI,[14],> 100 µM
same,TGI,[15],> 100 µM
same,TGI,[16],> 100 µM
same,TGI,[17],> 100 µM
same,TGI,[18],> 100 µM
same,TGI,[19],> 100 µM
same,TGI,[20],> 100 µM
same,TGI,[21],> 100 µM
same,TGI,[22],> 100 µM
same,TGI,[23],> 100 µM
same,TGI,[24],> 100 µM
same,TGI,[25],> 100 µM
same,TGI,[26],> 100 µM
same,TGI,[27],> 100 µM
same,TGI,[28],> 100 µM
same,TGI,[29],> 100 µM
same,TGI,[30],> 100 µM
same,TGI,[31],> 100 µM
same,TGI,[32],> 100 µM
same,TGI,[33],> 100 µM
same,TGI,[34],> 100 µM
same,TGI,[35],> 100 µM
same,TGI,[36],> 100 µM
same,TGI,[37],> 100 µM
same,TGI,[38],> 100 µM
same,TGI,[39],> 100 µM
same,TGI,[40],> 100 µM
same,TGI,[41],> 100 µM
same,TGI,[42],> 100 µM
same,TGI,[43],> 100 µM
same,TGI,[44],> 100 µM
same,TGI,[45],> 100 µM
same,TGI,[46],> 100 µM
same,TGI,[47],> 100 µM
same,TGI,[48],> 100 µM
same,TGI,[49],> 100 µM
same,TGI,[50],> 100 µM
same,TGI,[51],> 100 µM
same,TGI,[52],> 100 µM
same,TGI,[53],> 100 µM
same,TGI,[54],> 100 µM
same,TGI,[55],> 100 µM
